Biological target: T1, CD1687 (Clostridioides difficile, UniProt Q186P2)
T1 construct: gene CD630_16870; signal peptide removed, hexahistidine tag kept, expressed in E. coli Bli5 from a pET20-derived plasmid, Ni-NTA purified
Test: surface plasmon resonance (Biacore T200), His-tagged protein captured on Ni-NTA chip
Format: binding

T1 sequence (Q186P2 entry or part of it): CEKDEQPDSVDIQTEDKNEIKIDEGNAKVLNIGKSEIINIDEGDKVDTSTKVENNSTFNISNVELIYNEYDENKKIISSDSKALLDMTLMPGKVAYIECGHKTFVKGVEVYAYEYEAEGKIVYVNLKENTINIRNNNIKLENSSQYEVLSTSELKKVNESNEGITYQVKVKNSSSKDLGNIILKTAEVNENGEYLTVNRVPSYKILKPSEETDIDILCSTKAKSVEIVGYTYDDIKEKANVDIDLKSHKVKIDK

C[C@H](CCC(=O)O)[C@H]1CC[C@H]2[C@@H]3CC[C@@H]4C[C@H](O)CC[C@]4(C)[C@H]3C[C@H](O)[C@]12C [deoxycholate]
Kd: 1650 ± 580 µM
